Results reported in patent publication US20220389009A1, “SUBSTITUTED 1,6-NAPHTHYRIDINE INHIBITORS OF CDK5” (Goldfinch Bio, Inc., priority 2019, published 2022).

Experiments:
[1] = target: CDK5/p25 (Homo sapiens, UniProt Q00535); test: CDK5 mobility shift assay (enzymatic activity of CDK5/p25); format: biochemical; conditions: for IC50: 0.154 nM CDK5/p25, FL peptide 29, 60 min at room temperature, read-out: CDK5 IC50; for CDK5/CDK2 specificity: fold more active against CDK5 than CDK2
Protocol: (§1) Compound potency was measured via a change in the enzymatic activity of CDK5/p25, and optionally of CDK2/CycA2. Enzymes, CDK5/p25 and CDK2/CycA2, were sourced from Carna Biosciences (Cat #04-106 and 04-103, respectively). Test compound stocks were diluted in 100% DMSO and serially diluted 3-fold in a 384-well plate using a TECAN EVO200 (TECAN). Staurosporine was used as a reference control compound in all assays.
(§2) Twenty nL of compound were transferred into a 384-well plate (Greiner 781201) using an Echo550 (Labcyte Inc). Enzyme, ATP, and 10 mM MgCl2 were preincubated at room temperature with the compound in assay buffer (50 mM HEPES pH 7.5, 1 mM EGTA, 0.01% Brij-35, 0.05% BSA, 2 mM DTT) for 30 minutes. Peptide substrate (FL peptide 29 (Perkin Elmer) for CDK5/p25; FL Peptide 18 (Perkin Elmer) for CDK2/CycA2) was added to initiate the reaction. The final assay contained 0.154 nM CDK5/p25 or 1.25 nM CDK2/CycA2, […] (for CDK5/p25) or 37 μM (for CDK2/CycA2) ATP, and 1.5 μM of the appropriate peptide substrate. The final DMSO concentration was <1%.
(§3) The CDK5/p25 reaction was incubated at room temperature for 60 min. The CDK2/CycA2 reaction was incubated at room temperature for 120 min. The reactions were quenched by the addition of 70 μL stopping buffer containing 0.5 M EDTA. Samples were analyzed using the EZ Reader (Perkin Elmer).
(§4) The results were expressed as % vehicle, where % vehicle=100×(U−C2)/(C1−C2), where U is the signal of sample, C1 is the average of the high controls (signal with no compound added), and C2 is the average of low controls (signal with the buffer in place of enzyme). The ICso is determined by fitting the percentage of inhibition as a function of compound concentrations using a 4-parameter fit defined as follows.
(§5) Y=Bottom+(Top−Bottom)/(1+10^((LobIC50-X)*Hill Slope)), where X is the log of the compound concentration, Y is the % vehicle or response at X, Top and Bottom are the plateaus in the same units as Y, and the Hill's Slope is unitless, and the ICso is the half-maximal inhibitory concentration.

[2] = target: CDK2/CycA2 (Homo sapiens, UniProt P24941); test: CDK2 mobility shift assay (enzymatic activity of CDK2/CycA2); format: biochemical; conditions: 1.25 nM CDK2/CycA2, 37 μM ATP, FL Peptide 18, 120 min at room temperature; read-out: CDK2 IC50
Protocol: as §1, §2, §3, §4, §5

Chain of CDK5/p25 (Q00535 whole entry): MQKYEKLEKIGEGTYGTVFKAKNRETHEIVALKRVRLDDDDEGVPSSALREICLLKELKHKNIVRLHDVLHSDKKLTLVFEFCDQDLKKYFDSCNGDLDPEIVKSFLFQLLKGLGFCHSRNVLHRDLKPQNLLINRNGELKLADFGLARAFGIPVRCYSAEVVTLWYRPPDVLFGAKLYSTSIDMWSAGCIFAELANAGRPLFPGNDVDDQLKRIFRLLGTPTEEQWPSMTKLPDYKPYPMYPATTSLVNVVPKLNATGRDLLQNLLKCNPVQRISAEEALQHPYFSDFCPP
Chain of CDK5/p25 (Q15078 99-307 partner limits assumed): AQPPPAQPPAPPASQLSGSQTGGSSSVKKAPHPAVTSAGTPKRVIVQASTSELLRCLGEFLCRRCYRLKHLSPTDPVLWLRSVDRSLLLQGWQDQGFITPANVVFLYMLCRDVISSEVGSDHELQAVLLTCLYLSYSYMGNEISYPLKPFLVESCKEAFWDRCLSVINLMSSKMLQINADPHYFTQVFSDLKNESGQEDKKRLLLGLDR

Row | Structure (SMILES) | IC50 [1] [nM] | IC50 [2] [nM] | CDK5/CDK2 specificity [1]
1 | COc1cc(-c2ccc(Nc3cc4nc(C(C)C5CCN(C)CC5)ccc4cn3)c(F)c2)ccn1 (stereo not drawn) [Compound 339] | 10 to 100 | > 1000 | ++ (greater than 10-fold and less than or equal to 100-fold more active against CDK5 than CDK2)
2 | COC(c1ccc2cnc(Nc3ccc(-n4cccn4)cc3F)cc2n1)C1CCN(C)CC1 (single isomer, unassigned) [Compound 387, N-[2-fluoro-4-(pyrazol-1-yl)phenyl]-2-[methoxy(1-methylpiperidin-4-yl)methyl]-1,6-naphthyridin-7-amine] | 100 to 1000 | > 1000 | ++ (greater than 10-fold and less than or equal to 100-fold more active against CDK5 than CDK2)
3 | COC(=O)CN(c1ccc2cnc(Nc3ccc(-n4ccc(CO)n4)cc3F)cc2n1)C1CCNCC1 [Compound 112, Methyl 2-[[7-([2-fluoro-4-[3-(hydroxymethyl)pyrazol-1-yl]phenyl]amino)-1,6-naphthyridin-2-yl](piperidin-4-yl)amino]acetate] | 100 to 1000 | > 1000 | ++ (greater than 10-fold and less than or equal to 100-fold more active against CDK5 than CDK2)
4 | CN1CCC(S(=O)(=O)c2ccc3cnc(Nc4ccc(S(=O)(=O)N(C)C)cn4)cc3n2)CC1 [Compound 257] | 10 to 100 | 10 to 100 | + (10-fold or less more active against CDK5 than CDK2)
5 | CN1CCC(S(=O)(=O)c2ccc3cnc(Nc4ccc(-n5cncn5)cc4)cc3n2)CC1 [Compound 279] | < 10 | 100 to 1000 | ++ (greater than 10-fold and less than or equal to 100-fold more active against CDK5 than CDK2)
6 | [O-][S@+](c1ccc2cnc(Nc3ccc(-n4cccn4)cc3F)cc2n1)C1CCNCC1 [Compound 117, N-[2-fluoro-4-(pyrazol-1-yl)phenyl]-2-[(S)-piperidine-4-sulfinyl]-1,6-naphthyridin-7-amine] | 100 to 1000 | > 1000 | + (10-fold or less more active against CDK5 than CDK2)
7 | CN1CCC(C2(c3ccc4cnc(Nc5ccc(-n6cccn6)cc5F)cc4n3)CCO2)CC1 (stereo not drawn) [Compound 365, N-(2-fluoro-4-(1H-pyrazol-1-yl)phenyl)-2-(2-(1-methylpiperidin-4-yl)oxetan-2-yl)-1,6-naphthyridin-7-amine] | 10 to 100 | 100 to 1000 | ++ (greater than 10-fold and less than or equal to 100-fold more active against CDK5 than CDK2)
8 | CN1CCC(S(=O)(=O)c2ccc3cnc(Nc4ccc(N(C)C)cc4)cc3n2)CC1 [Compound 306] | < 10 | 10 to 100 | +++ (greater than 100-fold more active against CDK5 than CDK2)
9 | CN1CCC(S(=O)(=O)c2ccc3cnc(Nc4ccc(Cn5cncn5)cc4)cc3n2)CC1 [Compound 263] | < 10 | 10 to 100 | ++ (greater than 10-fold and less than or equal to 100-fold more active against CDK5 than CDK2)
10 | COC(=O)c1ccn(-c2ccc(Nc3cc4nc(C(O)C5CCN(C)CC5)ccc4cn3)c(F)c2)n1 (stereo not drawn) [Compound 344] | 100 to 1000 | > 1000 | ++ (greater than 10-fold and less than or equal to 100-fold more active against CDK5 than CDK2)

Second part, led by results:

Row | IC50 [1] [nM] | IC50 [2] [nM] | Structure (SMILES) | CDK5/CDK2 specificity [1]
11 | < 10 | 10 to 100 | CN1CCC(C(C)(O)c2ccc3cnc(Nc4ccc(-n5cccn5)cc4F)cc3n2)CC1 (single isomer, unassigned) [Compound 216, 1-(7-[[2-fluoro-4-(pyrazol-1-yl)phenyl]amino]-1,6-naphthyridin-2-yl)-1-(1-methylpiperidin-4-yl)ethanol] | ++ (greater than 10-fold and less than or equal to 100-fold more active against CDK5 than CDK2)
12 | < 10 | 10 to 100 | CN1CCC(C(C)(O)c2ccc3cnc(Nc4ccc(-c5ccc(C#N)cc5)cc4F)cc3n2)CC1 (stereo not drawn) [Compound 358] | ++ (greater than 10-fold and less than or equal to 100-fold more active against CDK5 than CDK2)
13 | < 10 | 100 to 1000 | COC(=O)c1ccn(-c2ccc(Nc3cc4nc(C(O)C5CCN(C)CC5)ccc4cn3)c(F)c2)n1 (stereo not drawn) [Compound 347] | +++ (greater than 100-fold more active against CDK5 than CDK2)
14 | < 10 | 100 to 1000 | CC(c1ccc2cnc(Nc3ccc(-n4ccc(CO)n4)cc3F)cc2n1)C1CCN(C)CC1 (single isomer, unassigned) [Compound 188, [1-[3-fluoro-4-([2-[1-(1-methylpiperidin-4-yl)ethyl]-1,6-naphthyridin-7-yl]amino)phenyl]pyrazol-3-yl]methanol] | +++ (greater than 100-fold more active against CDK5 than CDK2)
15 | < 10 | 100 to 1000 | Cc1cc(C)cc(Nc2cc3nc(S(=O)(=O)C4CCN(C)CC4)ccc3cn2)c1 [Compound 260] | +++ (greater than 100-fold more active against CDK5 than CDK2)
16 | < 10 | 10 to 100 | CN1CCC(S(=O)(=O)c2ccc3cnc(Nc4ccc(N5CCNC(=O)C5)cc4)cc3n2)CC1 [Compound 305] | ++ (greater than 10-fold and less than or equal to 100-fold more active against CDK5 than CDK2)
17 | < 10 | 100 to 1000 | CN1CCC(S(=O)(=O)c2ccc3cnc(Nc4cccc(N5CCOCC5)c4)cc3n2)CC1 [Compound 273] | +++ (greater than 100-fold more active against CDK5 than CDK2)
18 | < 10 | 10 to 100 | CN1CCC(C(C)(O)c2ccc3cnc(Nc4ccc(-c5cccc(=O)[nH]5)cc4F)cc3n2)CC1 (stereo not drawn) [Compound 393] | ++ (greater than 10-fold and less than or equal to 100-fold more active against CDK5 than CDK2)
19 | < 10 | < 10 | CN1CCC(C(C)(O)c2ccc3cnc(Nc4cccc(C(N)=O)c4)cc3n2)CC1 (stereo not drawn) [Compound 372] | ++ (greater than 10-fold and less than or equal to 100-fold more active against CDK5 than CDK2)
20 | < 10 | 100 to 1000 | CN1CCC(S(=O)(=O)c2ccc3cnc(Nc4cccc(CN5CCOCC5)c4)cc3n2)CC1 [Compound 276] | ++ (greater than 10-fold and less than or equal to 100-fold more active against CDK5 than CDK2)
21 | < 10 | 100 to 1000 | CC(c1ccc2cnc(Nc3ccc(-n4cccn4)cc3F)cc2n1)C1CCN(C)CC1 (stereo not drawn) [Compound 386] | ++ (greater than 10-fold and less than or equal to 100-fold more active against CDK5 than CDK2)
22 | < 10 | 10 to 100 | CN1CCC(C(C)(O)c2ccc3cnc(Nc4ccc(-c5cccc(=O)n5C)cc4F)cc3n2)CC1 (stereo not drawn) [Compound 354] | ++ (greater than 10-fold and less than or equal to 100-fold more active against CDK5 than CDK2)
23 | < 10 | 100 to 1000 | CN1CCC(S(=O)(=O)c2ccc3cnc(Nc4ccccc4F)cc3n2)CC1 [Compound 299] | ++ (greater than 10-fold and less than or equal to 100-fold more active against CDK5 than CDK2)
24 | < 10 | 100 to 1000 | O=S(=O)(c1ccc2cnc(Nc3ccc(-n4cccn4)cc3F)cc2n1)C1CCN(CC2COC2)CC1 [Compound 332] | +++ (greater than 100-fold more active against CDK5 than CDK2)
25 | < 10 | 10 to 100 | CN1CCC(S(=O)(=O)c2ccc3cnc(Nc4ccc(N5CCOCC5)cc4)cc3n2)CC1 [Compound 262] | ++ (greater than 10-fold and less than or equal to 100-fold more active against CDK5 than CDK2)
26 | < 10 | 10 to 100 | CN1CCC(C(O)(c2ccc3cnc(Nc4ccc(-n5cccn5)cc4F)cc3n2)C(F)(F)F)CC1 (single isomer, unassigned) [Compound 349, 2,2,2-trifluoro-1-(7-((2-fluoro-4-(1H-pyrazol-1-yl)phenyl)amino)-1,6-naphthyridin-2-yl)-1-(1-methylpiperidin-4-yl)ethan-1-ol] | ++ (greater than 10-fold and less than or equal to 100-fold more active against CDK5 than CDK2)
